This note sets out measurements from PubChem BioAssay (NCI).

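These data come from cells grown in 96-well plates and exposed to compound for 48 hours at five concentrations. TGI marks complete inhibition of growth.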

What all share (assay): growth of human tumour cells (NCI), 48 h
The test system of assay [1] is OVCAR-4 ovarian.
The subject of assay [2] is ACHN renal.
The subject of assay [3] is HL-60(TB) leukemia.
In assay [4] the test system is HS 578T breast.
The subject of assay [5] is NCI-H23 lung.
Assay [6] has as its system RPMI-8226 leukemia.
Assay [7] concerns MDA-N.
Assay [8] relates to SK-OV-3 ovarian.
The subject of assay [9] is HOP-62 NSCLC.
Assay [10] deals with SNB-19 CNS.

For `O=c1c2cc(I)ccc2nc(SCc2n[nH]c(=S)o2)n1Cc1ccccc1`, the TGI in assay [1] is 44.4 µM; in assay [2], 28.6 µM; in assay [3], 16.5 µM; in assay [4], 44.3 µM; in assay [5] it was 34.2 µM; in [6], above 100 µM. In addition, the TGI in [7] was determined as 32 µM; in [8] it was 62.3 µM; in assay [9], 41 µM; in assay [10], 55.5 µM.
In the case of `CC(C)(CCCCC(C)(C)C1NC(=O)N1)C1NC(=O)N1`, the TGI in assay [1], in assay [2], in [3], in assay [4], in assay [5] and in [6] was above 10 µM in each case. Moreover, the TGI in assay [7], in assay [8], in assay [9] and in assay [10] was above 10 µM throughout.
Consider `Cc1nn2c(C(=O)N/N=C/c3ccc([N+](=O)[O-])cc3)c(C)nc2s1`, for which the TGI in [1], in assay [2], in assay [3], in assay [4], in assay [5] and in assay [7] was above 100 µM throughout. Further, the TGI in assay [8] is 87 µM; in [9], above 100 µM; in assay [10], above 100 µM.
With `N#Cc1c(Cl)nc2ccccc2c1N=[N+]=[N-]`, the TGI in assay [1] was found to be 4.24 µM; in assay [2], 4.11 µM; in assay [3] it was 3.3 µM; in assay [4], 17.3 µM; in assay [5], 6.3 µM; in assay [6] it was 7.89 µM. Moreover, the TGI is 26.8 µM in assay [7], 29 µM in assay [8], 32.7 µM in [9] and 29.7 µM in [10].
For `Oc1ccccc1C1=NOC(c2ccc(C(F)(F)F)cc2)C1` (stereo not given), the TGI in assay [1], in assay [2], in [3], in [4], in assay [5] and in assay [6] was above 50 µM in each case. The TGI in assay [7], in assay [8], in [9] and in [10] was above 50 µM each time.
On to `CC(C)(C)OC(=O)c1ccc(NCC2=CC(=O)C=CC2=O)cc1`, for which the TGI was 22 µM in assay [1]; 22.2 µM in assay [2]; 3.29 µM in assay [3]; 46 µM in assay [4]; 22.2 µM in assay [5]; above 27.1 µM in assay [6]. Besides, the TGI in assay [7] was 25.3 µM; in [8], 41.6 µM; in [9], above 61.8 µM; in assay [10], 31.4 µM.
Consider `COc1ccc(/C=C/C(=O)CC(=O)/C=C/c2ccc(OC)cc2)cc1`, for which the TGI in [3] is 64.5 µM; in assay [4], 99.8 µM; in [5], 95.1 µM; in [6], above 100 µM; in [7], above 100 µM; in assay [8], above 100 µM. In addition, the TGI in [9] and in assay [10] was above 100 µM each time.
Consider `CO[C@@H]1C[C@H]2N3CC[C@@]2(c2cc4c(cc2C3)OCO4)[C@H]2O[C@@H]12`, for which the TGI in [1], in [2], in [3], in [4], in [5] and in assay [6] was above 100 µM throughout. For the same compound, the TGI in assay [7], in [8], in [9] and in assay [10] was above 100 µM throughout.
As for `CN(C)C=NCCN1CCOCC1`, the TGI in assay [1], in assay [2], in assay [3], in assay [4], in assay [5] and in assay [6] was above 100 µM each time. The TGI in [7], in assay [8], in [9] and in assay [10] was above 100 µM throughout.
Turning to `N#Cc1c(O)c(N=Nc2ccc(Cl)cc2)c(=O)n2c1[nH]c1ccccc12`, the TGI in [1] was above 100 µM; in [2], above 100 µM; in assay [3] it was above 100 µM; in [4], above 100 µM; in assay [5], above 100 µM; in [6], 85.5 µM. The TGI was above 100 µM in [7], above 100 µM in [8], 65.3 µM in assay [9] and above 100 µM in [10].
`COc1ccc(/C=C2\Sc3nnc(CNc4ccc(Cl)cc4)n3N=C2c2cc(F)c(Cl)cc2Cl)cc1OC`: the TGI in assay [1] is above 100 µM; in assay [2], above 100 µM; in assay [3] it was above 100 µM; in assay [4], above 100 µM; in assay [5], above 100 µM; in assay [6], 42.2 µM. Moreover, the TGI in assay [7], in assay [8] and in [9] was above 100 µM each time.
As to `CCCCCCOc1ccc(C(=O)N(C)O)cc1`, the TGI in assay [1] was above 100 µM; in [2], 30.3 µM; in [3], 33.2 µM; in [4], above 100 µM; in [5], 65.6 µM; in [6], 46.6 µM. Besides, the TGI in assay [7] was above 100 µM; in assay [8], above 97.1 µM; in assay [9] it was above 83.5 µM; in [10] it was above 100 µM.
With `NC(Cc1ccc(S(=O)(=O)O)cc1)C(=O)NC(Cc1ccc(S(=O)(=O)O)cc1)C(=O)NC(Cc1ccc(S(=O)(=O)O)cc1)C(=O)O` (stereo not given), the TGI in assay [1], in [2], in [3], in [4], in assay [5] and in assay [6] was above 100 µM throughout. Further, the TGI in [7] and in assay [9] was above 100 µM in each case.
As for `CCCCCCCCCCCCOc1ccc(/C=C/C2=[N+](CCCl)CCO2)cc1`, the TGI in [1] is above 100 µM; in assay [2], above 100 µM; in [3] it was 28.8 µM; in assay [4] it was above 100 µM; in [6], above 100 µM; in [7] it was above 100 µM. Also, the TGI in assay [8], in assay [9] and in assay [10] was above 100 µM in each case.
In the case of `O=C(CN1CCOCC1)c1ccc2c(c1)oc(=O)n2CCN1CCCC1`, the TGI in assay [2], in assay [3], in assay [4], in assay [5], in assay [6] and in assay [7] was above 100 µM in each case. Besides, the TGI in assay [8], in assay [9] and in [10] was above 100 µM each time.
`CC1(C)C2CC3C4CC5(Nc6ccccc6C5N41)[C@]3(C)CC2=O` (stereo not given in full): the TGI in [1], in assay [2], in assay [3], in assay [4], in [5] and in assay [6] was above 50 µM throughout. The TGI in [7] and in assay [9] was above 50 µM throughout.
Turning to `CN(C)c1ccc(-c2ccc(N(C)C)c3n[se]nc23)c2n[se]nc12`, the TGI in [1], in [2], in assay [3], in [4], in assay [5] and in [6] was above 100 µM throughout. In addition, the TGI in assay [7], in assay [8] and in [9] was above 100 µM in each case.
`O=[N+]([O-])/C(C(Cl)=C(Cl)Cl)=C(\Nc1ccccc1)n1nnc2ccccc21`: the TGI in assay [1] is 35 µM; in assay [2], above 100 µM; in assay [4], 38.7 µM; in assay [5], 61.2 µM; in assay [6], 93 µM; in assay [7], above 100 µM. In addition, the figures for the TGI in [8], in assay [9] and in assay [10] were above 100 µM, 93.6 µM and above 100 µM, respectively.
`O=C(Cc1nc2ncccc2[nH]c1=O)c1c[nH]c2ccccc12`: the TGI is 30.1 µM in assay [2]; above 100 µM in assay [3]; 40.8 µM in assay [4]; 54 µM in assay [5]; 91.8 µM in [6]; 45.4 µM in assay [7]. In addition, the TGI came out at 29.8 µM in [8], 36.9 µM in assay [9] and 35.7 µM in assay [10].
For `CCOC(=O)c1nc2ccccc2nc1Oc1cc(OC)c(OC)c(OC)c1`, the TGI in assay [1], in assay [2], in assay [3], in assay [4], in assay [5] and in assay [6] was above 100 µM throughout. In addition, the TGI in assay [7], in assay [9] and in assay [10] was above 100 µM each time.
`Fc1cccc(Cl)c1C1SCc2nc3cc4ccccc4cc3n21` (stereo not given): the TGI in [1], in assay [2], in assay [4], in [5], in [6] and in assay [7] was above 100 µM in each case. In addition, the TGI in assay [8], in [9] and in [10] was above 100 µM each time.
